The record followed here is patent publication US20100160255A1, “SPIRO-CYCLIC COMPOUND” (Takeda Pharmaceutical Company Limited, priority 2005, published 2010).

In one assay the target is T1, human ACC1 (Homo sapiens, UniProt Q13085).
T1 construct: made in house; host or cells: SF-9 insect cells, recombinant baculovirus BAC-ACC1
In words: ACC1 inhibitory activity (malachite green absorbance assay, recombinant enzyme). It is filed as biochemical. Particulars: Table 8; recombinant human ACC1; 30° C.; absorbance 620 nm; read-out: IC50 (ACC1 inhibitory activity).

The next assay deals with T2, human ACC2 (Homo sapiens, UniProt O00763).
T2 construct: made in house; host or cells: SF-9 insect cells, recombinant baculovirus BAC-ACC2(Nd)
T2 sequence (O00763 117-2458 limits assumed): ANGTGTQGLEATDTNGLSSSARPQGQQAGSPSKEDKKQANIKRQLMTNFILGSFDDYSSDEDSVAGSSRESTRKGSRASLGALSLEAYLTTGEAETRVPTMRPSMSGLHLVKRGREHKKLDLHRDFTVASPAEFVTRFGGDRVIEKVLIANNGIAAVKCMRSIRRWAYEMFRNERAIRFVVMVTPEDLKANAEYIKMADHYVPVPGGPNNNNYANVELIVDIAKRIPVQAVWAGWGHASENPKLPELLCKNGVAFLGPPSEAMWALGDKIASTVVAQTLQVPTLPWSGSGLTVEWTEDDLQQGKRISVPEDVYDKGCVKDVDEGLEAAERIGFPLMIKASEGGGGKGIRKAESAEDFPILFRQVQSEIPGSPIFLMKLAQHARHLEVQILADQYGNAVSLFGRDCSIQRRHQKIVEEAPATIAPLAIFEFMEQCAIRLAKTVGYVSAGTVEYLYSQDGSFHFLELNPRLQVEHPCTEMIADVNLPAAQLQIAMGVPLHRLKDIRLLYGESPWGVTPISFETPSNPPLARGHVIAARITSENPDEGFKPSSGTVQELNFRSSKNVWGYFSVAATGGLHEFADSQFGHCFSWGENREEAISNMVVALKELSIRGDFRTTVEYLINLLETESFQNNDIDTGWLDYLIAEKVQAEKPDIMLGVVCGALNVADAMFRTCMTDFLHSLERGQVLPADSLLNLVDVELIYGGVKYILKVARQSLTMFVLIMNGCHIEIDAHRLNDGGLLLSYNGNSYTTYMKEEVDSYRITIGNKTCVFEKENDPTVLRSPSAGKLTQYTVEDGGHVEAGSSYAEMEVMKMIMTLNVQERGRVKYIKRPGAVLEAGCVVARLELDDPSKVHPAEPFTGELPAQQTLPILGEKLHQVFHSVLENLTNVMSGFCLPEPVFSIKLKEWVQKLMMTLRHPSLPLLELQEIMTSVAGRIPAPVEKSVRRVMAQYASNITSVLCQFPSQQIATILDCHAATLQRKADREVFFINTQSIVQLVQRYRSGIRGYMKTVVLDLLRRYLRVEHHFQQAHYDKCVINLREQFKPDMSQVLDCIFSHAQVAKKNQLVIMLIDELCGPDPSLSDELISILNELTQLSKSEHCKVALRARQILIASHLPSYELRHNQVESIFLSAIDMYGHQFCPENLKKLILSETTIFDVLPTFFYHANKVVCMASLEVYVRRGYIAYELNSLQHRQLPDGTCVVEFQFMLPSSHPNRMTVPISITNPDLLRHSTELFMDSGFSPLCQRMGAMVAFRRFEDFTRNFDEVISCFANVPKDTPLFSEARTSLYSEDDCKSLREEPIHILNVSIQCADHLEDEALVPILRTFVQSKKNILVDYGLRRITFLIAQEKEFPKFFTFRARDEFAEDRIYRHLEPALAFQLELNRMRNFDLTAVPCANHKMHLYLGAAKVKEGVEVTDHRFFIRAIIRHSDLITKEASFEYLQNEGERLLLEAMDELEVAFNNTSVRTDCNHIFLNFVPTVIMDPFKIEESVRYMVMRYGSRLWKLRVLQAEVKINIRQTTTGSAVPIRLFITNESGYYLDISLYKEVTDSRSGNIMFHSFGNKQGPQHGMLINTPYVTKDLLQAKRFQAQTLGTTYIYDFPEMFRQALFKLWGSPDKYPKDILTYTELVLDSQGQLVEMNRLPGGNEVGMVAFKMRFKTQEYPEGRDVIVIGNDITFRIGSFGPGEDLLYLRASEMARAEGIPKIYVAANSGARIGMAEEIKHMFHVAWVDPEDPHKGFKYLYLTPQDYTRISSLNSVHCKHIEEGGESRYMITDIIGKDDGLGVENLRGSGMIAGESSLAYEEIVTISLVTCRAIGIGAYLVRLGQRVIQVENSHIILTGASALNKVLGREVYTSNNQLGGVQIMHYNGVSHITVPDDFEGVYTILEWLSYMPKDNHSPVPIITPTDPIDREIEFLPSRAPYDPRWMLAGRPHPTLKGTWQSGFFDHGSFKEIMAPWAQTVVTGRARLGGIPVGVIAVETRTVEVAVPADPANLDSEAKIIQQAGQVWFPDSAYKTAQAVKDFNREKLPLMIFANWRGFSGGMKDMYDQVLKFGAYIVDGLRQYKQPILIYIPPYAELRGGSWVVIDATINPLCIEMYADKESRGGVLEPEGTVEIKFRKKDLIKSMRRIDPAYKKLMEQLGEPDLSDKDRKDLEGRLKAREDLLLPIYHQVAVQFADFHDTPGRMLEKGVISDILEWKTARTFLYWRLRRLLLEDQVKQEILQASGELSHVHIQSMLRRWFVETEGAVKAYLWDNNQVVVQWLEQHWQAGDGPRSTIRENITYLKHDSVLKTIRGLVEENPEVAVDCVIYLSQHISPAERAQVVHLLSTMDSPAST
As to the kind of experiment: ACC2 inhibitory activity (malachite green absorbance assay, recombinant ACC2(Nd)). Type of assay: biochemical. Particulars: Table 9; recombinant human ACC2(Nd), N terminal deletion; 30° C.; absorbance 620 nm; read-out: IC50 (ACC2 inhibitory activity).

A word on the IC50: it is the point on the concentration scale where inhibition reaches its midpoint. `CCN1CCC2(CCCN(C3CCN(C(=O)c4c(NC(=O)NC)sc5ccccc45)CC3)C2)C1=O` (centres unmarked) [Example 339, N-(3-{[4-(2-ethyl-1-oxo-2,7-diazaspiro[4.5]dec-7-yl)piperidin-1-yl]carbonyl}-1-benzothien-2-yl)-N′-methylurea]: the half-maximal inhibitory concentration (IC50) came out at 300 nM at human ACC1 and 45 nM at human ACC2.
